From ChEMBL document CHEMBL5120864, “Targeting Enhancer of Zeste Homolog 2 for the Treatment of Hematological Malignancies and Solid Tumors: Candidate Structure-Activity Relationships Insights and Evolution Prospects” (J Med Chem, 2022)
One block for each molecule: values may come before it.

What was measured:
Pfeiffer [1] = experiment: cells; format: functional, cell-based; settings: Homo sapiens
SU-DHL-6 = experiment: cells; format: functional, cell-based; settings: Homo sapiens
[2] = target: Histone-lysine N-methyltransferase EZH2 (Homo sapiens, UniProt Q15910, Y641F)
[3] = target: Histone-lysine N-methyltransferase EZH2 (Homo sapiens, UniProt Q15910, Y641N)
[4] = target: T1, Protein cereblon/Histone-lysine N-methyltransferase EZH2 (Homo sapiens, UniProt Q15910+Q96SW2); format: cell-based, DOHH-2
[5] = target: T1, Protein cereblon/Histone-lysine N-methyltransferase EZH2; format: cell-based, OCILY7
MDA-MB-231 = experiment: cells; format: functional, cell-based; settings: Homo sapiens, MDA-MB-231, 72 h
HepG2 = experiment: cells; format: functional, cell-based; settings: Homo sapiens, HepG2, 24 h
MCF7 = experiment: cells; format: functional, cell-based; settings: Homo sapiens, MCF7, 24 h
PC-3 = experiment: cells; format: functional, cell-based; settings: Homo sapiens, PC-3, 24 h
[6] = target: T2, Histone-lysine N-methyltransferase EZH2 (Homo sapiens, UniProt Q15910)
KARPAS-422 [7] = experiment: cells; format: functional; settings: Homo sapiens
Pfeiffer [8] = experiment: cells; format: functional, cell-based; settings: Homo sapiens; remark: listed apart in the source
[9] = target: T2, Histone-lysine N-methyltransferase EZH2; remark: listed apart in the source
[10] = target: T2, Histone-lysine N-methyltransferase EZH2; remark: listed apart in the source
WSUDLCL2 = experiment: cells; format: functional, cell-based; settings: Homo sapiens
KARPAS-422 [11] = experiment: cells; format: functional, cell-based; settings: Homo sapiens
[12] = target: T2, Histone-lysine N-methyltransferase EZH2; remark: listed apart in the source
HeLa = experiment: cells; format: functional, cell-based; settings: Homo sapiens

Chain of Histone-lysine N-methyltransferase EZH2 (Homo sapiens, UniProt Q15910, Y641F) (Q15910 whole entry Y641F): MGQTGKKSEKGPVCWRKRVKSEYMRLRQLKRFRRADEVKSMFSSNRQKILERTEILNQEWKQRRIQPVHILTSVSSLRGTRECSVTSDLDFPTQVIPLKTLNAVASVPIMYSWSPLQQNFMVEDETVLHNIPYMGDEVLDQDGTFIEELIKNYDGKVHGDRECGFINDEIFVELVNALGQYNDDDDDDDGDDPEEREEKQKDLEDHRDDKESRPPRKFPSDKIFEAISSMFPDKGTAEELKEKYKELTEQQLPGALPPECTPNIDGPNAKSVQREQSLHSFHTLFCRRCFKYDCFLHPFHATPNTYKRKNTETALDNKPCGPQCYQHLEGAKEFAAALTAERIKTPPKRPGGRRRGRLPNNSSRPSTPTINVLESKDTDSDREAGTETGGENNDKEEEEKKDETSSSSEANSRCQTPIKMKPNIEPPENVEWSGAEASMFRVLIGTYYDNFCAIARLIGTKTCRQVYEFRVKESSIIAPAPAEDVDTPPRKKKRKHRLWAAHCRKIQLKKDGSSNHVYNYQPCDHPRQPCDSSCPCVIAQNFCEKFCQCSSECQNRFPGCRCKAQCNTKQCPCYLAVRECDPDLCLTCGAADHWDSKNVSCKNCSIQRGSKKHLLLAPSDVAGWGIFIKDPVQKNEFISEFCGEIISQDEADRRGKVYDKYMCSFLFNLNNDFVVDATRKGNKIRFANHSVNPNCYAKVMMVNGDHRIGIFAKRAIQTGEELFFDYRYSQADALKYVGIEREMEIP
T2 sequence (Q15910 whole entry): as the sequence (Q15910 whole entry Y641F) above, with F641Y counted along it
T1 sequence (Q15910 whole entry): as the sequence (Q15910 whole entry Y641F) above, with F641Y counted along it
T1 sequence (Q96SW2 whole entry): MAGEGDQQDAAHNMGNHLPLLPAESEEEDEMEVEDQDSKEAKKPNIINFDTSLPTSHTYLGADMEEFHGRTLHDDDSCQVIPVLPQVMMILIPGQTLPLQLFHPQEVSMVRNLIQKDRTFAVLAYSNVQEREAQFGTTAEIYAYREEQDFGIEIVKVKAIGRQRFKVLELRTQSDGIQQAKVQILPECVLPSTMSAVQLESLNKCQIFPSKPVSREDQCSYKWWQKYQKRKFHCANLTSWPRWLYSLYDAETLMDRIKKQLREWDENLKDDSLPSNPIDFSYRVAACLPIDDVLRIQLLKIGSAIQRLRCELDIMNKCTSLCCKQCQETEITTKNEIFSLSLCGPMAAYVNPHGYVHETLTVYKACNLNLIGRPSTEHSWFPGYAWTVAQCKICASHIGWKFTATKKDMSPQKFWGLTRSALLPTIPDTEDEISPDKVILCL
Chain of Histone-lysine N-methyltransferase EZH2 (Homo sapiens, UniProt Q15910, Y641N) (Q15910 whole entry Y641N): as the sequence (Q15910 whole entry Y641F) above, with F641N counted along it

Structure (SMILES): CCN(c1cc(-c2ccc(CN3CCN(C)CC3)cc2)cc(C(=O)NCc2c3c(c(C)[nH]c2=O)CCCC3)c1C)C1CCOCC1
- IC50 (Pfeiffer [1]): 12.5 nM
- IC50 (SU-DHL-6): 16 µM

Structure (SMILES): C=CCC1(S(=O)(=O)N2CCc3c(C(=O)NCc4c(C)cc(C)[nH]c4=O)cc(-c4ccc(N5CCN(C)CC5)nc4)cc32)CC1
- IC50 [2]: 2590 nM
- IC50 [3]: 2590 nM

Structure (SMILES): CCN(c1cc(-c2ccc(CN3CCN(C(=O)CCCCCNc4cccc5c4C(=O)N(C4CCC(=O)NC4=O)C5=O)CC3)cc2)cc(C(=O)NCc2c(C)cc(C)[nH]c2=O)c1C)C1CCOCC1 (stereo not drawn)
- IC50 [4]: 100 nM
- IC50 [5]: 100 nM

Structure (SMILES): COc1ccc(C2SCCC(=O)N2Nc2nc3cc(C)c(C)cc3[nH]2)cc1 (stereo not drawn)
- IC50 (HepG2): 68.3 µM
- IC50 (MCF7): 59.7 µM
- IC50 (PC-3): 66.3 µM

Structure (SMILES): CCCc1cc(C)[nH]c(=O)c1CNC(=O)c1cc(-c2ccc(N3CCNCC3)cc2)cc2c1ccc(=O)n2C(CC)CC
- IC50 [2]: 9 nM
- IC50 [6]: 11 nM

Structure (SMILES): Cc1cc(C)c(CN2CCc3c(Br)c4c(c(C)c3C2=O)OC(C)([C@H]2CC[C@H](N(C)C)CC2)O4)c(=O)[nH]1 (stereo partly drawn)
- GI50 (KARPAS-422 [7]): 1.2 nM
- GI50 (Pfeiffer [8]): 0.21 nM

Structure (SMILES): COc1ccc(C2SCCC(=O)N2Nc2nc3cc(Cl)c(Cl)cc3[nH]2)cc1 (stereo not drawn)
- IC50 (HepG2): 68.7 µM
- IC50 (MCF7): 76.8 µM
- IC50 (PC-3): 71.8 µM

Structure (SMILES): Cc1cc(-c2ccc(N3CCN(C)CC3)nc2)c2ccc(C(=O)NCc3c(OC(C)C)cc(C)[nH]c3=O)c(C)c2n1
- IC50 [2]: 13 nM
- IC50 [6]: 1.29 nM

Structure (SMILES): Cc1cc(C)c(CNC(=O)c2cnn(C(C)C)c2C)c(=O)[nH]1
- IC50 [9]: 343 µM

Structure (SMILES): Cc1cc(C)c(CNC(=O)c2cc3c(c(-c4ccc(N5CCNCC5)cc4)c2)OC(C)(C)C3)c(=O)[nH]1
- IC50 [10]: < 500 nM

Structure (SMILES): C=CCC1(S(=O)(=O)n2nc(C)c3c(C(=O)NCc4c(C)cc(C)[nH]c4=O)cc(-c4ccc(N5CCN(C)CC5)nc4)cc32)CC1
- IC50 [2]: 585 nM
- IC50 [3]: 2810 nM

Structure (SMILES): O=C1CCSC(c2ccccc2Cl)N1Nc1nc2ccccc2[nH]1 (stereo not drawn)
- IC50 (HepG2): 13.6 µM
- IC50 (MCF7): 20.3 µM
- IC50 (PC-3): 9.41 µM

Structure (SMILES): COC1CN([C@H]2CC[C@H]([C@@H](C)c3sc4c(c3C)C(=O)N(Cc3c(C)cc(C)[nH]c3=O)CCC4)CC2)C1
- IC50 [2]: 0.92 nM
- IC50 [6]: 0.0097 nM
- IC50 [12]: 2.65 nM

Structure (SMILES): CCN(c1cc(C#CC2CCN(C)CC2)cc(C(=O)NCc2c(C)cc(C)[nH]c2=O)c1C)C1CCOCC1
- IC50 [2]: 8.4 nM

Structure (SMILES): CCN(c1cc(C#CCN2CCOCC2)cc(C(=O)NCc2c(C)cc(C)[nH]c2=O)c1C)[C@H]1CC[C@H](N(C)CCOC)CC1
- IC50 (WSUDLCL2): 385 nM

Structure (SMILES): C=CC(=O)Nc1nn(C(C)c2ccccc2)c(C)c1C(=O)NCc1c(C)cc(C)[nH]c1=O (stereo not drawn)
- IC50 [10]: 64 nM

Structure (SMILES): C[C@H](C(=O)NC1COC1)c1cnc(NC[C@H]2CC[C@H](Nc3ccc4ccnc(Cl)c4n3)CC2)nc1
- IC50 (KARPAS-422 [11]): 0.3 nM

Other lines, results leading:

- IC50 (MDA-MB-231): 9.6 µM
Structure (SMILES): COc1cc2nc(N3CCCN(C)CC3)nc(NC3CCN(Cc4ccccc4)CC3)c2cc1OC

- GI50 (KARPAS-422 [7]): 4.8 nM
Structure (SMILES): Cc1cc(C)c(CNC(=O)c2cc(Cl)c3c(c2C)O[C@@](C)([C@H]2CC[C@H](N(C)C)CC2)O3)c(=O)[nH]1 [VALEMETOSTAT]

- IC50 (WSUDLCL2): 3.8 nM
- IC50 (KARPAS-422 [11]): 52 nM
Structure (SMILES): COc1cc(C)[nH]c(=O)c1CN1CCn2ccc3cc(-c4c(C)noc4C)c(Cl)c(c32)C1=O

- IC50 (Pfeiffer [8]): 76 nM
Structure (SMILES): CCc1c(C(=O)NCc2c(C)cc(C)[nH]c2=O)cc2c(cnn2C)c1N(CC)[C@H]1CC[C@H](N2CC(OC)C2)CC1

- IC50 [2]: < 5 nM
- IC50 (Pfeiffer [8]): 249 nM
Structure (SMILES): CCN(c1cc(-c2cnc(N3CCN(C)CC3)nc2)cc2c(NCc3c(C)cc(C)[nH]c3=O)nccc12)[C@H]1CC[C@H](N(C)C)CC1

- IC50 [2]: 8.13 nM
- IC50 [6]: 76.1 nM
Structure (SMILES): CCCc1cc(C)[nH]c(=O)c1CNC(=O)c1cc(-c2ccc(N3CCNCC3)nc2)cc2c([C@H](C)CC)ncn12

- IC50 [10]: 7 nM
Structure (SMILES): Cc1cc(C)c(CNC(=O)c2cc(-c3ccc(N4CCN(CCOCCC(=O)Nc5cccc6c5C(=O)N(C5CCC(=O)NC5=O)C6=O)CC4)nc3)c3c(cnn3C(C)C)c2)c(=O)[nH]1 (stereo not drawn)

- IC50 [9]: > 400 µM
Structure (SMILES): Cc1cc(C)c(CNC(=O)c2cnn(-c3ccccc3)c2)c(=O)[nH]1

- IC50 [4]: 100 nM
- IC50 [5]: 60 nM
Structure (SMILES): CCN(c1cc(-c2ccc(CN3CCN(C(=O)CCCCCCCNc4cccc5c4C(=O)N(C4CCC(=O)NC4=O)C5=O)CC3)cc2)cc(C(=O)NCc2c(C)cc(C)[nH]c2=O)c1C)C1CCOCC1 (stereo not drawn)

- IC50 [10]: < 100 nM
Structure (SMILES): CCN(c1cc(-c2ccc(CN3CCOCC3)cc2)cc(C(=O)NCc2c(Cl)cc(C)c[n+]2[O-])c1C)C1CCOCC1

- GI50 (KARPAS-422 [7]): 4 nM
- EC50 (HeLa): 0.51 nM
Structure (SMILES): CSc1cc(C)[nH]c(=O)c1CNC(=O)c1cc(Cl)c2c(c1C)O[C@@](C)([C@H]1CC[C@H](N(C)C)CC1)O2
